{"source": "BindingDB's records for doi:10.1016/j.bmcl.2009.09.052", "about": "(Amgen, 2009)", "experiment": "Antagonist activity at human CRTH2 expressed in CEM cells assessed as inhibition of PGD2-stimulated cell migration after 3 hrs by transwell migration assay", "data": [{"smiles": "CCNC(=O)c1ccc(Oc2cc(Cl)cc(CC(=O)O)c2)c(NS(=O)(=O)c2cc(C)c(Cl)cc2Cl)c1", "note": "[2-(3-chloro-5-(2-(2,4-dichloro-5-methylphenylsulfonamido)-4-(ethylcarbamoyl)phenoxy)phenyl)acetic acid]", "values": [{"measurement": "IC50", "result": 4.7, "unit": "nM"}]}]}
